Assay results taken from patent publication US10342806B2, “Hormone treatment for age-related hearing loss-presbycusis” (priority 2014, dated 2019).
Peptide text beside a SMILES is read from it. * marks the point of attachment. Cbz = O=C(OCc1ccccc1)*

Tests used:
Type in all cases: cell-based, human
[1] = tested on: LC3-I, -II, and LAMP-2; test: Lysosome pathway markers in HT-29 cells, Western blot; conditions: ALD 1 μM, MG-132 20 μM, CQ 50 μM, 9 h
Description: FIG. 23(A) is a blot and showing ubiquitination, but not the lysosome pathway, is involved in the regulation of NKCC1 by ALD. To exclude the possibility that depletion of free ubiquitin by the prolonged MG-132 treatment triggered nonspecific inhibition of lysosome degradation of NKCC1 and investigate whether ALD is involved in a lysosome pathway, a parallel experiment with chloroquine (CQ) was performed. Here, the positive marks (+) indicate application of ALD (1 μM), MG132 (20 μM), CQ (50 μM), ALD+CQ, and MG132+CQ for 9 h. An autophagosome marker, autophagy-related gene 8 named as light chain 3 (LC3), and the lysosome-associated membrane protein 2 (LAMP-2) were used was indicators of lysosome pathway activation (phagocytic activity) under treatment with CQ.
(§1) Western blot. Cell lysates were prepared in RIPA buffer (Pierce 89901; Thermo Scientific, Waltham, Mass.) with protease inhibitor cocktail (78430; Thermo Scientific). Cell samples were homogenized in buffer, followed by centrifugation at 2,000 rpm for 10 min at 4° C. Supernatants were subjected to Western blot analysis by loading 200 μg of protein per lane, after the protein concentrations were determined by Bradford protein assay. Proteins were fractionated by SDS-PAGE gel electrophoresis and transferred to a PVDF blotting membrane (Whatman, Piscataway, N.J.). The blot was incubated with primary antibodies against β-actin and Na—K-2C1 cotransport protein (Cell Signaling, Danvers Mass.); primary antibodies for p-SGK1, SGK1, pNedd4-2, and Nedd4-2 were utilized (concentration 1:1,000). The secondary antibody was horseradish peroxidaseconjugated goat anti-rabbit IgG (1:2,000; Cell Signaling).
Ubiquitination, but not the lysosome pathway, is involved in NKCC1 induction by ALD. A parallel experiment was performed with chloroquine (CQ), a lysosome inhibitor, to exclude the possibility that prolonged MG-132 treatment depleted free ubiquitin by nonspecific inhibition of lysosome degradation of NKCC1 and to confirm whether or not ALD is involved in a lysosome pathway. […]

[2] = tested on: SGK1 and Nedd4-2; test: SGK1 and Nedd4-2 phosphorylation in HT-29 cells, Western blot; conditions: 9 h
Description: FIG. 25 is a blot showing ALD modulation of NKCC1 via the ALD-SGK1-Nedd4-2 pathway. HT-29 cells were treated with ALD (1 μM) or ALD (1 μM)+GSK650394 (50 μM) for 9 h. Cell lysates were analyzed by Western blot as indicated. Blots are representative of 3 independent experiments. Left: controls. Middle: ALD increases the phosphorylations of SGK1 and Nedd4-2, concomitantly there is an increased induction of NKCC1 protein expression (1st row).
as §1

[3] = tested on: NKCC1; test: NKCC1 protein expression in HT-29 cells, Western blot
Text: Cell culture and buffers. […] Arch Oral Biol 52: 411-416, 2007). These include, for example, studies of COMM domain-containing protein 1, which is involved in NKCC1 ubiquitination and transcriptional regulation of epithelial Na^+ channels (ENaC) located in the apical membrane of polarized epithelial cells, in particular, cells in the colon, kidney, and lung, by ALD (Cohen, et al., Induced differentiation in HT29, a human colon adenocarcinoma cell line. J Cell Sci 112: […], 1999, Epple, et al., Early aldosterone effect in distal colon by transcriptional regulation of ENaC subunits. Am J Physiol Gastrointest Liver Physiol 278: G718-G724, 2000, Smith, et al., COMMD1 interacts with the COOH terminus of NKCC1 in Calu-3 airway epithelial cells to modulate NKCC1 ubiquitination. Am J Physiol Cell Physiol 305: C133-C146, 2013). HT-29 cells were grown in DMEM media (Invitrogen, Carlsbad Calif.) with 10% FBS and antibiotics. Cells were grown in a humidified 95%/5% CO2 incubator at 37° C. Experiments were performed at 70-80% confluence.
as §1
Statistical analysis. Images from films were imported into Adobe Photoshop (v 5.0), and further processed using Adobe Photoshop CS and ImageJ (National Institutes of Health) for the densitometry analysis. Data are reported as means±SD. Statistical analyses were performed with PRISM 4.0 (GraphPad Software, San Diego Calif.). Differences were analyzed with a one- or a two-way repeated measures ANOVA as appropriate or a two-way ANOVA followed by Bonferroni post hoc analyses that were corrected for multiple comparisons. Values of P <0.05 were considered significant.

[4] = tested on: NKCC1 ubiquitination; test: Immunoprecipitation (autoubiquitination assay) of NKCC1 in HT-29 cells; conditions: MG132 20 μM 2 h, then ALD 1 μM and/or GSK 650394 50 μM for 24 h
Description: Immunoprecipitation (autoubiquitination assay) and western blot analysis. An autoubiquitination assay was followed (Garg, et al., Effect of the Na—K-2Cl cotransporter NKCC1 on systemic blood pressure and smooth muscle tone. Am J Physiol Heart Circ Physiol 292: H2100-H2105, 2007). Cell extracts were prepared in a modified radioimmunoprecipitation assay 1 (RIPA) buffer, containing the following (in mM): 50 Tris·HCl at pH 7.4, 150 NaCl, 1 EDTA, and 1 dithiothreitol with 1% Nonidet P-40, 0.1% SDS; in a 1:200-diluted protease inhibitor cocktail (Sigma), containing the following (in mM): 1 PMSF, 10 NEM, and 0.1 iodoacetamide Immunoprecipitations were accomplished using a rabbit polyclonal anti-NKCC1 antibody (Cell Signaling). Antibody was bound to lysate with endogenous NKCC1, and then beads were added. Bound proteins were eluted in 1× SDS sample buffer, fractionated on an SDS-polyacrylamide gel, transferred onto a […] membrane (GE Healthcare, Piscataway, N.J.), and immunoblotted with anti-ubiquitin antibody visualized using enhanced chemiluminescence detection reagents (Pears, Shelton Conn.) according to the manufacturer's instructions.
Immunoblotting with anti-ubiquitin antibody was performed as described above.
ALD decreases the endogenous ubiquitination of NKCC1 and inhibition of SGK1 activation blocks this downregulation. […]

[5] = tested on: NKCC1; test: Tl-uptake in single HT-29 cells (FluxOR) for NKCC1 activity; conditions: 24 single HT-29 cells per condition
Text: Tl-uptake in single cells for the detection of NKCC1 activity. To measure NKCC1 activity, we used a fluorescence assay to assess cotransporter activity in single isolated HT-29 cells (Delpire & Austin, Kinase regulation of Na^+—K^+-2Cl^− cotransport in primary afferent neurons. J Physiol 588: 3365-3373, 2010, Geng, et al., The Ste20 kinases SPAK and OSR1 regulate NKCC1 function in sensory neurons. J Biol Chem 284: 14020-14028, 2009, Weaver, et al., A thallium-sensitive, fluorescence-based assay for detecting and characterizing potassium channel modulators in mammalian cells. J Biomol Screen 9: 671-677, 2004). HT-29 cells were incubated at 37° C./5% CO2 for 24 h before use. […] For the detection of fluorescence, the preincubation solution was removed, and the cells were treated with a 340.5 mosM hypertonic stimulus solution containing the following (in mM): (2.8 TISO4, 140 NaCl, 2 KCl, 2 CaCl2, 0.8 MgSO4, 5 glucose, 20 HEPES, 27 sucrose, 1 ouabain, and 2.7 probenecid) in the presence or absence of 20 μM bumetanide. […] FluxOR fluorescence (excitation/emission: 488/525 nm) was recorded after 90 s upon addition of 2.8 mM […] to the external medium. […]
Influence of ALD on NKCC1 transporter activity. […] To test this hypothesis, a more efficient and sensitive method, fluorescence Ion flux assays was adopted to measure NKCC1 transporter activity. […]

[6] = tested on: Na,K-ATPase; test: Na,K-ATPase mRNA expression in HT-29 cells; conditions: 5 mM, 24 hr, HT-29, compared to vehicle treatment; preliminary data
Description: FIG. 37 is a blot showing the up-regulation of Na, K-ATPase with NH4Cl. L is the DNA ladder, C is the control (vehicle treatment), NH4CL is treatment with 5 mM NH4Cl for 24 hours.
Ammonium chloride (NH4Cl) as part of a proposed treatment of presbycusis is based on the fact that NH4Cl has been used with FDA approval as a diuretic; NH4Cl increases NKCC1 protein expression and activity in several studies in other physiological systems (Jayakumar et al. 2008; Ikebe et al. 2001); c) NH4Cl can also increase Na, K-ATPase activity (Masui et al. 2002; Garcon et al. 2007). For large doses, NH4Cl can induce metabolic acidosis, but in lower doses taken orally, there are no significant side effects in the short term.

## CCN(CC)CCCC(C)Nc1ccnc2cc(Cl)ccc12 (centres unmarked) [CQ, chloroquine]
[1]
  lysosome pathway markers LC3II and LAMP-2 expression levels: significant upregulation of LC3II and LAMP-2 expression levels

## O=C(O)c1ccc(-c2c[nH]c3ncc(-c4ccccc4)cc23)cc1C1CCCC1 [GSK 650394]
[2]; ALD 1 μM + GSK 650394 50 μM
  total protein expressions of SGK1 and Nedd4-2: showed no differences
[2]; ALD 1 μM, GSK 650394 50 μM
  phosphorylation of SGK1 and Nedd4-2: blocked phosphorylation of SGK1 and Nedd4-2
[3]; ALD 1 μM + GSK 650394 50 μM, 9 h
  NKCC1 protein expression with ALD in the presence of SGK1 inhibitor: did not increase protein expression of NKCC1
[4]
  endogenous ubiquitinated NKCC1: reduces the ability of ALD to suppress NKCC1 ubiquitination

## CC(C)C[C@@H](C=O)NC(=O)[C@H](CC(C)C)NC(=O)[C@H](CC(C)C)NC(=O)OCc1ccccc1 [MG132] (Cbz-Leu-Leu-Leu-aldehyde)
[1]
  lysosome pathway markers LC3II and LAMP-2 expression levels: without increasing lysosome pathway markers
[3]; ALD 1 μM, MG-132 20 μM, CQ 50 μM, 9 h
  induction of NKCC1 protein expression: induce NKCC1 protein expression similarly
[3]; MG132, ALD 1 μM, 3, 6, or 9 h
  NKCC1 protein expression: effect of ALD on NKCC1 expression was mimicked by MG132
[5]
  bumetanide-sensitive Tl+ uptake fluorescence: identical enhancements similar to the ALD treatment alone

## Cl.N [NH4Cl, Ammonium chloride]
[6]
  mRNA expression of Na,K-ATPase: enhances the mRNA expression of Na,K-ATPase

## COC(=O)[C@@H]1CC2=CC(=O)CC[C@]2(C)[C@@]23O[C@@H]2C[C@@]2(C)[C@@H](CC[C@@]24CCC(=O)O4)[C@H]13 [eplerenone]
[3]; simultaneous ALD (1 μM) and eplerenone (20 μM)
  effect on ALD upregulation of NKCC1 protein expression: prevented the ALD upregulation of NKCC1 protein expression
